The values below are quoted from earlier work in US8481087B2, “Withania somnifera plant extract and method of preparation thereof” (National Brain Research Centre, priority 2008, dated 2013).

The subject of this series is severely damaged neurons. The settings on record: severely damaged neurons in vitro.

With `CC1=C(C)C(=O)O[C@@H]([C@](C)(O)[C@H]2CC[C@H]3[C@@H]4[C@@H]5O[C@@H]5[C@@]5(O)CC=CC(=O)[C@]5(C)[C@H]4CC[C@]23C)C1` [Withanolide-A], the “neurite regeneration and synapse reconstruction” value is “regenerate neurites and reconstruct synapses”.
